From US7223759B2, “Antibacterial 3,5-diaminopiperidine-substituted aromatic and heteroaromatic compounds” (Anadys Pharmaceuticals, Inc., priority 2003, dated 2007) come the findings set out here.

For the first test, the system named is Escherichia coli (ATCC25922) or Staphylococcus aureus (ATCC25923). In words: Antibacterial MIC, microdilution method in Mueller-Hinton medium. It counts as cell-based. The settings on record: Escherichia coli, 18 h, MIC in E. coli or S. aureus; two-fold serial dilutions 64 to 0.5 μg/ml in duplicate; 18 hours of incubation at 35° C.; read-out: Potency (MIC). In a few lines: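 Read after 18 h incubation at 35° C, MIC is the lowest compound level that blocked growth. Compounds were tested in duplicate over 64–0.5 μg/ml two-fold dilutions using Mueller-Hinton microdilution per NCCLS standard.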
With `N[C@@H]1CC(c2nc(NCc3ccco3)nc(N3C[C@H](N)C[C@H](N)C3)n2)C[C@H](N)C1` (stereo partly drawn) [N-furan-2-ylmethyl-44,6-Bis-((3R,5S)-3,5-diamino-piperidin-1-yl)-[1,3,5]triazine-2-amine], the MIC was above 64 µg/mL. Turning to `Cl.N[C@@H]1C[C@H](N)CN(c2nc(Nc3ccc4c(c3)CCC4)nc(N3C[C@H](N)C[C@H](N)C3)n2)C1` [N-indan-5-yl-4,6-Bis-((3R,5S)-3,5-diamino-piperidin-1-yl)-[1,3,5]triazine-2-amine], the MIC was above 64 µg/mL. In the case of `Cl.N[C@@H]1C[C@H](N)CN(c2nc(Nc3ccon3)nc(N3C[C@H](N)C[C@H](N)C3)n2)C1` [N-isoxazol-3-yl-4,6-Bis-((3R,5S)-3,5-diamino-piperidin-1-yl)-[1,3,5]triazine-2-amine], the MIC was above 64 µg/mL.

As for `Cl.N[C@@H]1C[C@H](N)CN(c2nc(Nc3ccccc3)nc(N3C[C@H](N)C[C@H](N)C3)n2)C1` [N-phenyl-44,6-Bis-((3R,5S)-3,5-diamino-piperidin-1-yl)-[1,3,5]triazine-2-amine], the MIC is above 64 µg/mL.

With `N[C@@H]1C[C@H](N)CN(c2nc(NC3CCCNC3)nc(N3C[C@H](N)C[C@H](N)C3)n2)C1` (stereo partly drawn) [N-piperidin-3-yl-4,6-Bis-((3R,5S)-3,5-diamino-piperidin-1-yl)-[1,3,5]triazine-2-amine], the MIC was above 64 µg/mL. Still for that read-out and setting: with `N[C@@H]1CC(c2nc(NC3CCNCC3)nc(N3C[C@H](N)C[C@H](N)C3)n2)C[C@H](N)C1` (stereo partly drawn) [N-piperidin-4-yl-4,6-Biss-((3R,5S)-3,5-diamino-piperidin-1-yl)-[1,3,5]triazine-2-amine] the figure was above 64 µg/mL; with `N[C@@H]1C[C@H](N)CN(c2nc(Nc3ccc4ccc5cccc6ccc3c4c56)nc(N3C[C@H](N)C[C@H](N)C3)n2)C1` [N-pyren-1-yl-4,6-Bis-((3R,5S)-3,5-diamino-piperidin-1-yl)-[1,3,5]triazine-2-amine], below 16 µg/mL; with `N[C@@H]1C[C@H](N)CN(c2nc(NC3CCNC3)nc(N3C[C@H](N)C[C@H](N)C3)n2)C1` (stereo partly drawn) [N-pyrrolidin-3-yl-4,6-Bis-((#r,5S)-3,5-diamino-piperidin-1-yl)-[1,3,5]triazine-2-amine], above 64 µg/mL.

Turning to `N[C@@H]1C[C@H](N)CN(c2nc(Nc3cccc(NC(=O)c4cc5cccc(O)c5cc4O)c3)nc(N3C[C@H](N)C[C@H](N)C3)n2)C1` [N-{3-[(3,5-dihydroxy-naphthalene-2-carbonyl)-amino]-phenyl}-4,6-Bis-((3R,5S)-3,5-diamino-piperidin-1-yl)-[1,3,5]triazine-2-amine], the MIC is below 64 µg/mL. On the same count and under the same terms, with `Cl.O=C(Nc1ccc(Nc2nc(N3CCCCC3)nc(N3CCCCC3)n2)cc1Cl)c1ccc(C(F)(F)F)nc1O` [N-{3-chlorro-4-[(2-hydroxy-6-trifluoromethyl-pyridine-3-carbonyl)-amino]-phenyl}-4,6-Bis-((3R,5S)-3,5-diamino-piperidin-1-yl)-[1,3,5]triazine-2-amine] the figure was below 16 µg/mL. Consider `Cc1ccc(S(=O)(=O)NC(Cc2ccccc2)C(=O)Nc2ccc(Nc3nc(N4CCCCC4)nc(N4CCCCC4)n3)cc2O)cc1.Cl` [N-{3-hydroxy-4-[3-phenyl-2-(toluene-4-sulfonylamino)-propionylamino]-phjenyl}-4,6-Bis-((3R,5S)-3,5-diamino-piperidin-1-yl)-[1,3,5]triazine-2-amine], for which the MIC was below 16 µg/mL. Still for that read-out and setting: the same measure for `N[C@@H]1C[C@H](N)CN(c2nc(Nc3ccc(NC(=O)c4ccc5ccccc5c4)c(O)c3)nc(N3C[C@H](N)C[C@H](N)C3)n2)C1` [N-{3-hydroxy-4-[(naphthalene-2-carbonyl)-amino]-phenyl}-4,6-Bis-((3R,5S)-3,5-diamino-piperidin-1-yl)-[1,3,5]triazine-2-amine]: below 64 µg/mL; for `N[C@@H]1C[C@H](N)CN(c2nc(Nc3ccc(NC(=O)c4cnc5ccccc5n4)c(O)c3)nc(N3C[C@H](N)C[C@H](N)C3)n2)C1` [N-{3-hydroxy-4-[(quinoxaline-2-carbonyl)-amino]-phenyl}-4,6-Bis-((3R,5S)-3,5-diamino-piperidin-1-yl)-[1,3,5]triazine-2-amine]: below 64 µg/mL. Same read-out and setting: with `COc1cnc(NS(=O)(=O)c2ccc(Nc3nc(N4C[C@H](N)C[C@H](N)C4)nc(N4C[C@H](N)C[C@H](N)C4)n3)cc2)nc1` [N-{4-(5-methoxy-pyrimidin-2-ylsulfamoyl)-phenyl]-4,6-Bis-((3R,5S)-3,5-diamino-piperidin-1-yl)-[1,3,5]triazine-2-amine] the figure was above 64 µg/mL; with `Cl.O=C(CC(O)c1ccc(Nc2nc(N3CCCCC3)nc(N3CCCCC3)n2)cc1)Nc1ccccc1C(F)(F)F` [N-{4-[1-hydroxy-2-(2-trifluoromethyl-phenylcarbazmoyl)-ethyl]-phenyl}-4,6-Bis-((3R,5S)-3,5-diamino-piperidin-1-yl)-[1,3,5]triazine-2-amine], below 64 µg/mL.

The test is the same for the next values; noted with them: Escherichia coli, 18 h, read-out: Potency (MIC).
Regarding `N[C@@H]1C[C@H](N)CN(c2nc(Nc3ccc4ccccc4c3)nc(N3C[C@H](N)C[C@H](N)C3)n2)C1` [N-naphthalene-2-yl-4,6-Bis-((3R,5S)-3,5-diamino-piperidin-1-yl)-[1,3,5]triazine-2-amine], the MIC was below 64 µg/mL.

Regarding `N[C@@H]1C[C@H](N)CN(c2nc(Nc3ccc(NC(=O)c4ccc(N5Cc6ccccc6C5)cc4O)c(Cl)c3)nc(N3C[C@H](N)C[C@H](N)C3)n2)C1` [N-{3-chloro-4-[4-(1,3-dihydro-isoindol-2-yl)-2-hydroxy-benzoylamino]-phenyl}-4,6-Bis-((3R,5S)-3,5-diamino-piperidin-1-yl)-[1,3,5]triazine-2-amine], the MIC was below 16 µg/mL. As for `N[C@@H]1C[C@H](N)CN(c2nc(Nc3ccc(NC(=O)c4c(O)ccc5ccccc45)c(Cl)c3)nc(N3C[C@H](N)C[C@H](N)C3)n2)C1` [N-{3-chloro-4-[(2-hydroxy-naphthalene-1-carbonyl)-amino]-phenyl}-4,6-Bis-((3R,5S)-3,5-diamino-piperidin-1-yl)-[1,3,5]triazine-2-amine], the MIC was below 16 µg/mL. On the same count and under the same terms, the same measure for `N[C@@H]1C[C@H](N)CN(c2nc(Nc3ccc(NC(=O)C(=O)c4c[nH]c5ccccc45)c(O)c3)nc(N3C[C@H](N)C[C@H](N)C3)n2)C1` [N-{3-hydroxy-4-[2-(1H-indol-3-yl)-2-oxo-acetylamino]-phenyl}-4,6-Bis-((3R,5S)-3,5-diamino-piperidin-1-yl)-[1,3,5]triazine-2-amine]: below 16 µg/mL. On the same count and under the same terms, with `N[C@@H]1C[C@H](N)CN(c2nc(Nc3ccc(NS(=O)(=O)c4ccc5c(c4)CN(C(=O)C(F)(F)F)CC5)c(O)c3)nc(N3C[C@H](N)C[C@H](N)C3)n2)C1` [N-{3-hydroxy-4-[2-(2,2,2-trifluoro-acetyl)-1,2,3,4-tetrahydro-isoquinoline-7-sulfonylamino]-phenyl}-4,6-Bis-((3R,5S)-3,5-diamino-piperidin-1-yl)-[1,3,5]triazine-2-amine] the figure was above 64 µg/mL; with `CC(C)CCCCCC(=O)Nc1ccc(S(=O)(=O)Nc2ccc(Nc3nc(N4C[C@H](N)C[C@H](N)C4)nc(N4C[C@H](N)C[C@H](N)C4)n3)cc2O)cc1` [N-{3-hydroxy-4-[4-(7-methyl-octanoylamino)-benzenesulfonylamino]-phenyl}-4,6-Bis-((3R,5S)-3,5-diamino-piperidin-1-yl)-[1,3,5]triazine-2-amine], below 16 µg/mL. The same measure, in the same setting: with `Cc1ccc(C(=O)Nc2ccc(Nc3nc(N4C[C@H](N)C[C@H](N)C4)nc(N4C[C@H](N)C[C@H](N)C4)n3)cc2O)c(O)n1` [N-{3-hydroxy-4-[(2-hydroxy-6-methyl-pyridine-3-carbonyl)-amino]-phenyl}-4,6-Bis-((3R,5S)-3,5-diamino-piperidin-1-yl)-[1,3,5]triazine-2-amine] the figure was below 64 µg/mL; with `N[C@@H]1C[C@H](N)CN(c2nc(Nc3ccc(NC(=O)c4ccc(C(F)(F)F)nc4O)c(O)c3)nc(N3C[C@H](N)C[C@H](N)C3)n2)C1` [N-{3-hydroxy-4-[(2-hydroxy-6-trifluoromethyl-pyridine-3-carbonyl)-amino]-phenyl}-4,6-Bis-((3R,5S)-3,5-diamino-piperidin-1-yl)-[1,3,5]triazine-2-amine], below 64 µg/mL; with `N[C@@H]1C[C@H](N)CN(c2nc(Nc3ccc(NC(=O)c4c(O)ccc5ccccc45)c(O)c3)nc(N3C[C@H](N)C[C@H](N)C3)n2)C1` [N-{3-hydroxy-4-[(2-hydroxy-naphthalene-1-carbonyl)-amino]-phenyl}-4,6-Bis-((3R,5S)-3,5-diamino-piperidin-1-yl)-[1,3,5]triazine-2-amine], below 16 µg/mL. For the molecule `N[C@@H]1C[C@H](N)CN(c2nc(Nc3ccc(NC(=O)c4cccnc4O)c(O)c3)nc(N3C[C@H](N)C[C@H](N)C3)n2)C1` [N-{3-hydroxy-4-[(2-hydroxy-pyridine-3-carbonyl)-amino]-phenyl}-4,6-Bis-((3R,5S)-3,5-diamino-piperidin-1-yl)-[1,3,5]triazine-2-amine], the MIC was below 16 µg/mL. Turning to `N[C@@H]1C[C@H](N)CN(c2nc(Nc3ccc(C(=O)CC(=O)Nc4ccc5c(c4)OC(F)(F)O5)cc3)nc(N3C[C@H](N)C[C@H](N)C3)n2)C1` [N-{4-[2-(2,2-difluoro-benzo[1,3]dioxol-5-ylcarbamoyl)-acetyl]-phenyl}-4,6-Bis-((3R,5S)-3,5-diamino-piperidin-1-yl)-[1,3,5]triazine-2-amine], the MIC was below 16 µg/mL. For `N[C@@H]1C[C@H](N)CN(c2nc(Nc3ccc(C(=O)CC(=O)Nc4ccc(Cl)cc4Cl)cc3)nc(N3C[C@H](N)C[C@H](N)C3)n2)C1` [N-{4-[2-(2,4-dichloro-phenylcarbamoyl)-acetyl]-phenyl}-4,6-Bis-((3R,5S)-3,5-diamino-piperidin-1-yl)-[1,3,5]triazine-2-amine], the MIC is below 64 µg/mL. Same read-out and setting: with `COc1ccc(OC)c(NC(=O)CC(=O)c2ccc(Nc3nc(N4C[C@H](N)C[C@H](N)C4)nc(N4C[C@H](N)C[C@H](N)C4)n3)cc2)c1` [N-{4-[2-(2,5-dimethoxy-phenylcarbamoyl)-acetyl]-phenyl}-4,6-Bis-((3R,5S)-3,5-diamino-piperidin-1-yl)-[1,3,5]triazine-2-amine] the figure was below 64 µg/mL.

As a reminder, the MIC is the lowest concentration that inhibits growth of the organism.
